From patent US4539410A, “N-Substituted-2-(1-imidazolyl)indoles” (priority 1983, dated 1985)

Legend:
[1] = test system: thromboxane B2 plasma level; assay: in vivo reduction of plasma thromboxane B2 in rats after ionophore A23187; conditions: oral dose as low as 0.20 mg/kg
Protocol: (§1) The inhibition of the synthesis and the reduction of plasma levels of thromboxane is determined in vivo on administration to rats in the following manner (as adapted from the procedures described by Tai et al. in Anal. Biochem. 87:343, 1978 and by Salmon in Prostaglandins 15:383, 1978):
(§2) Rats are dosed with vehicle or test drug and injected intravenously with inophore A23187 (0.5 mg/kg) two hours later. Blood is collected for analysis 2 minutes after the ionophore injection. A single aliquot of each plasma sample is assayed for thromboxane B2 and another aliquot for 6-keto-PGF1 α, the stable metabolites of thromboxane A2 and prostacyclin (PGI2) respectively, by radioimmunoassay.

[2] = target: T1, thromboxane synthetase from lysed human platelets (Homo sapiens, UniProt P24557); assay: in vitro inhibition of thromboxane synthetase (14C-arachidonic acid, TxB2/PGF2 α+β ratio); type: biochemical; conditions: concentration at which ratio TxB2/PGF2 α+β is reduced to 50% of control; 30 minutes incubation
T1 construct: crude microsomal preparation of thromboxane synthetase from lysed human platelets; from tissue; host or cells: human platelets (lysed), crude microsomal preparation
T1 sequence (P24557 1-533): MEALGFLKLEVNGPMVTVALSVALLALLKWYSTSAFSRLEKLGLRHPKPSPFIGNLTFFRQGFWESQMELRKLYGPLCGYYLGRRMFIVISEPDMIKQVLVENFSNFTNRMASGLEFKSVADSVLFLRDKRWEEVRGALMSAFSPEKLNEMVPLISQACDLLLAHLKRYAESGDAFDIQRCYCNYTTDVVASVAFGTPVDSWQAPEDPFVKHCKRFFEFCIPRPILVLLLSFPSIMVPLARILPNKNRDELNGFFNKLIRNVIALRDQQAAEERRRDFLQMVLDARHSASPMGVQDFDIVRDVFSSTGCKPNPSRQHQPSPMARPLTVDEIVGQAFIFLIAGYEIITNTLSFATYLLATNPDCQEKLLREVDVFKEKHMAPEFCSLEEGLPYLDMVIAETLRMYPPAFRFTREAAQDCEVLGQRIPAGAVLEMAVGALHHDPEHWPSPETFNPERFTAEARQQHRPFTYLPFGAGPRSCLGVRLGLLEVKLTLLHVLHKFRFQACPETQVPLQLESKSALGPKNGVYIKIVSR
Protocol: Res. Comm. 74, 1432 (1977); the testing procedure is as follows:
^14 C-Arachidonic acid is incubated with an enzyme mixture preparation consisting of solubilized and partially purified prostaglandin cyclo-oxygenase from sheep seminal vesicles and a crude microsomal preparation of thromboxane synthetase from lysed human platelets. The test compound (dissolved in buffer, or if necessary, in a small amount of ethanol) is added to the incubation medium. At the end of the incubation period (30 minutes), Prostaglandin E2 (PGE2) is reduced to a mixture of Prostaglandin F2 α and F2 β (PGF2 α+β) by addition of sodium borohydride. The radioactive products and excess substrate are extracted into ethyl acetate; the extract is evaporated to dryness; the residue is dissolved in acetone, spotted on thin-layer plates and chromatographed in the solvent system toluene:acetone:glacial acetic acid (100 volumes:100 volumes:3 volumes). The radioactive zones are located; those corresponding to Thromboxane B2 (T×B2) and PGF2 α+β are transferred to liquid scintillation vials and counted. The ratio of counts for T×B2 /PGF2 α+β is calculated for each concentration of test compound and IC50 values are determined graphically as the concentration of test compound at which the ratio of T×B2 /PGF2 α+β is reduced to 50% of the control value.

[3] = test system: prostacyclin (PGI2) plasma level; assay: in vivo plasma prostacyclin (6-keto-PGF1 α) in rats after ionophore A23187; conditions: oral, at 0.20 mg/kg or a higher dose
Protocol: as §1, §2

## Cc1c(-n2ccnc2)n(CCCCCC(=O)O)c2ccccc12.Cl [Example 3, 1-(5-carboxypentyl)-2-(1-imidazolyl)-3-methylindole hydrochloride]
[1]
  decrease of the plasma concentration of thromboxane B2: over 50%
[2]
  IC50: 2.3 nM
[3]
  plasma level of prostacyclin: increase in the plasma level of prostacyclin occurs
